# Results from US11866466B2, “Tumor homing and cell penetrating peptide-immuno-oncology agent complexes and methods of use thereof” (BLAZE BIOSCIENCE, INC., priority 2017, dated 2024).
# {ppp} = triphosphate on the strand's 5' end
# How the values were obtained:
# STING = settings: from Lioux et al.; cited from earlier work
# [1] = tested on: IFN pathway (JAK/STAT/ISGF3 pathway and/or IRF3 pathway) in SEAP reporter cells; RIG-I; assay: B16-Blue IFN-alpha/beta SEAP reporter cell assay; type: cell-based, murine; settings: for luminescence signal (RLU) from activating the IFN pathway: 12 pmol or 120 pmol, 24, 48, or 72 hours, no transfection reagent (FIG. 19); for RLU signal in the presence of transfection reagent: with Lipofectamine transfection reagent (FIG. 22)
# A20 lymphoma cells [2] = assay: Intratumoral microinjection in A20 lymphoma tumors, CC3 immunostaining and radial plot analysis; type: in vivo, mouse; settings: for CC3 staining (apoptosis) at injection site: 24 hours after administration, complex at 1 μg and 2 μg doses (FIG. 81)
# A20 lymphoma cells [3] = assay: Intratumoral microinjection in A20 tumors, IFNb mRNA in situ hybridization (RNAscope); type: in vivo, mouse; settings: 4 hours after administration; complex at 1 ug or 2 ug (FIG. 84, FIG. 85)
# [4] = tested on: CT26 colon carcinoma cells; assay: Intratumoral microinjection in CT26 flank tumors, cleaved caspase 3 (CC3) immunostaining; type: in vivo, mouse
# Mo7e cells = assay: Mo7e proliferation assay (PrestoBlue); type: cell-based, human; settings: 3 days incubation (FIG. 29)
# Method: (§1) This example describes in vitro proliferation of cells treated with peptide-IL-15 agent complexes using cytokine dependent CTLL2 (mouse cytotoxic T lymphocyte cell line), Mo7e (human acute megakaryoblastic leukemia cell line) and human primary CD8+ T cells. All assays were performed in the 96 well plate format in clear bottom black walled tissue culture plates. Peptide-I/O complexes comprising SEQ ID NO: 568, peptide-I/O complexes comprising an IL-15 agent, and peptide-I/O complexes comprising a His-tagged RLI control proteins (SEQ ID NO: 1342) were diluted in culture media without cytokine supplement. […]
# CTLL2 and Mo7e cells were maintained as cell cultures in media containing either IL-2 (CTLL2) or IL-3 (Mo7e). Viability and cell concentration were analyzed using a Viacell cell counter. […]
# After the end of the incubation period, PrestoBlue live cell assay reagent (Invitrogen) was added to each well (10 μL per 100 μL well). […] Fluorescence was quantified using an Envision (Perkin Elmer 2104) plate reader. Data was graphed and analyzed in Excel, GraphPad Prism 7, or the AAT Bioquest graphing and EC50 calculator https://www.aatbio.com/tools/ec50-calculator. […]
# After the end of the incubation period, PrestoBlue live cell assay reagent (Invitrogen) was added to each well per manufacture instructions. […] PrestoBlue fluorescence was quantified using an Envision (Perkin Elmer 2104) plate reader.
# [5] = tested on: CD8+ primary human T cells; assay: CD8+ primary human T cell proliferation assay (PrestoBlue); type: cell-based; settings: FIG. 30A
# Method: as §1
# (§2) CD8+ selected primary human T-cells were received as frozen cells and stored in the LN2 vapor phase until used. […] 15 mL of room temperature 10% FBS RPMI media was added to the cell suspension; the cells were then pelleted, resuspended in 10% FBS media, and counted using the Viacell. […]
# (§3) After the end of the incubation period, PrestoBlue live cell assay reagent (Invitrogen) was added to each well (10 μL per 100 μL well). […] Fluorescence was quantified using an Envision (Perkin Elmer 2104) plate reader. Data was graphed and analyzed in Excel, GraphPad Prism 7, or the AAT Bioquest graphing and EC50 calculator https://www.aatbio.com/tools/ec50-calculator.
# [6] = tested on: PHA induced T cell blasts; assay: PHA induced T cell blast proliferation assay (PrestoBlue); type: cell-based, human; settings: FIG. 30B; same CD8+ T cell donor
# Method: as §1, §2, §3
# [7] = Tolerability of intraperitoneal peptide-IL-15 agent complexes in CT26 tumor mice; type: in vivo, mouse; settings: 1-12 ug in 100 μl, 4 days a week intraperitoneally, 7 doses
# Method: This example describes peptide-IL-15 agent complex accumulation in tumors. Peptide-IL-15 agent complexes such as this in example 18 were expressed and purified. Mice were dosed with 0.2 million CT26 cells, which were allowed to grow for 5 days, at which time tumors were palpable. Mice were dosed with 1-12 ug of SEQ ID NO: 1317, SEQ ID NO: 1321, an RLI, or no agent in 100 μl 4 days a week intraperitoneally. […] After 7 doses, the animals were sacrificed and the tumor tissue was harvested and fixed.
molecule,measurement,setting,value
"3′,2′c-AIMP [Analog 23]","activity relative to 2′,3′-cGAMP",STING,"equivalent in activity to 2′,3′-cGAMP"
"5′ppp dsRNA: SEQ ID NO: 1424 (with triphosphate on the 5′ end) and SEQ ID NO: 1425 (no terminal phosphates) complexed together (chain 1 GCAUGCGACCUCUGUUUGA; chain 2 UCAAACAGAGGUCGCAUGC; chain 1: RNA, 5' {ppp}, backbone and methylation of C not given here; chain 2: RNA, backbone and methylation of C not given here)",luminescence signal (RLU) from activating the IFN pathway,[1],Very little signal
same,RLU signal in the presence of transfection reagent,[1],high signaling
"5′ppp hpRNA: I/O comprising a dsRNA SEQ ID NO: 1371 with a 5′ppp, which forms a hairpin structure (GCAUGCGACCUCUGUUUGAUCAAACAGAGGUCGCAUGC; RNA, 5' {ppp}, backbone and methylation of C not given here; hairpin RNA)",luminescence signal (RLUs) with transfection reagent,"[1]; 16.2 pmole, 24 hours, with Lipofectamine (FIG. 80)",High signaling
same,fraction of cells positive for CC3 staining versus distance from injection site (radial plot),"A20 lymphoma cells [2]; 24 hour timepoint, 7-8 tumors per test article, complex at 1 μg and 2 μg (FIG. 82)",very little increase in CC3 positive cells
same,CC3 staining (apoptosis) at injection site,A20 lymphoma cells [2],do not show similarly strong induction of apoptosis
same,IFNb mRNA staining at injection site,A20 lymphoma cells [3],significant IFNb mRNA staining
"Nc1ncnc2c1ncn2C1OC2COP(=O)(O)OC3C(COP(=O)(O)OC2C1O)OC(n1cnc2c(=O)[nH]cnc21)C3O (stereo not shown) [Analog 9, 3′,3′c-AIMP]","activity relative to 2′,3′-cGAMP",STING,"equivalent in activity to 2′,3′-cGAMP"
"Nc1ncnc2c1ncn2C1OC2COP(=O)(O)O[C@@H]3C(COP(=O)(O)O[C@@H]1[C@@H]2O)OC(n1cnc2c(=O)[nH]cnc21)[C@@H]3O (stereo partly shown) [Analog 10, 2′,3′c-AIMP]","activity relative to 2′,3′-cGAMP",STING,"equivalent in activity to 2′,3′-cGAMP"
"Nc1ncnc2c1ncn2C1C[C@@H]2OP(=O)(O)OCC3OC(n4cnc5c(=O)[nH]cnc54)C[C@@H]3OP(=O)(O)OCC2O1 (stereo partly shown) [Analog 51, c-(dAMP-dIMP)]","activity relative to 2′,3′-cGAMP",STING,"equivalent in activity to 2′,3′-cGAMP"
"Nc1ncnc2c1ncn2C1OC2COP(=O)(O)O[C@@H]3C(COP(=O)(O)O[C@H]2[C@H]1F)OC(n1cnc2c(=O)[nH]cnc21)[C@@H]3F (stereo partly shown) [Analog 52, c-(2′FdAMP-2′FdIMP)]","activity relative to 2′,3′-cGAMP",STING,"more potent than 2′,3′-cGAMP"
"Nc1ncnc2c1ncn2C1OC2COP(=O)(O)OC3CC(n4cnc5c(=O)[nH]cnc54)OC3COP(=O)(O)OC2C1F (stereo not shown) [Analog 54, c-(2′FdAMP-dIMP)]","activity relative to 2′,3′-cGAMP",STING,"equivalent in activity to 2′,3′-cGAMP"
"Nc1ncnc2c1ncn2C1C[C@@H]2OP(=O)(O)OCC3OC(n4cnc5c(=O)[nH]cnc54)[C@H](F)[C@@H]3OP(=O)(O)OCC2O1 (stereo partly shown) [Analog 55, c-(dAMP-2′FdIMP)]","activity relative to 2′,3′-cGAMP",STING,"equivalent in activity to 2′,3′-cGAMP"
"Nc1ncnc2c1ncn2C1OC2COP(=O)(S)OC3CC(n4cnc5c(=O)[nH]cnc54)OC3COP(=O)(S)OC2C1F (stereo not shown) [Analog 56, c-[2′FdAM(PS)-dIM(PS)]]","activity relative to 2′,3′-cGAMP",STING,"more potent than 2′,3′-cGAMP"
Cc1ccc2c(=O)c3cccc(CC(=O)O)c3oc2c1C [DMXAA],CC3 staining (apoptosis) at injection site,A20 lymphoma cells [2],do not show similarly strong induction of apoptosis
CCN(CC)CCCC(C)Nc1ccnc2cc(Cl)ccc12 (stereo not shown) [chloroquine],CC3 staining (apoptosis) at injection site,[4]; 4 hours post-treatment (FIG. 16),did not have a significant region of CC3 staining
same,CC3 staining (apoptosis) at injection site,"[4]; 24 h, other animals tested",One animal showed CC3 staining
"SEQ ID NO: 1342: His-tagged RLI protein comprising SEQ ID NO: 1169, SEQ ID NO: 1176 (IL-15Ra sushi+) and SEQ ID NO: 1177 (IL-15)","cytokine activity, proliferation",Mo7e cells,stimulate Mo7e cells
same,"cytokine activity, proliferation",[5],stimulate human CD8+ T cells
same,"cytokine activity, proliferation",[6],stimulate human CD8+ T cells
same,tolerability of treatments,[7],well tolerated
c-[2′FdAMP(S)-2′FdIMP(S)] [Analog 53],"activity relative to 2′,3′-cGAMP",STING,"more potent than 2′,3′-cGAMP"
cAIM(PS)2 [Analog 13],"activity relative to 2′,3′-cGAMP",STING,"more potent than 2′,3′-cGAMP"
"dsRNA: SEQ ID NO: 1424 and SEQ ID NO: 1425 (no terminal phosphates on either strand) complexed together (chain 1 GCAUGCGACCUCUGUUUGA; chain 2 UCAAACAGAGGUCGCAUGC; RNA, backbone and methylation of C not given here; further chemistry not fully specified)",luminescence signal (RLU) from activating the IFN pathway,[1],Very little signal
same,RLU signal in the presence of transfection reagent,[1],much lower signaling
